Results published in US20070154393A1, “Bioassay for volatile low molecular weight insecticides and methods of use” (priority 2005, published 2007).
Where two headings read alike, the source gives them in different places.

Key:
[1] = tested on: metabolically-resistant Hikone-R strain of Drosophila (elevated cytochrome P450); format: in vivo; settings: Hikone-R, 24 hr
Protocol: (§1) Four Drosophila strains were used, all obtained from the Bloomington Drosophila Stock Center (Indiana University; Bloomington, Ind.). The Canton-S strain was used as the insecticide-susceptible standard. […] Two resistant neurological-mutant strains were also tested. […] Flies were reared in 100-ml vials capped with acetate plugs (Fisher Scientific; Suwanee, Ga.) on a commercial diet (JAZZ-MIX; Fisher Scientific). […] Mixed-sex adults, less than 1-wk old, were used in bioassays.
(§2) All volatile insecticide stocks were prepared at 100 μg/μl in analytical grade acetone. Rather than weigh the highly volatile liquid insecticides (i.e., all compounds except benzothiophene), weight was determined based on the density-volume relationship of each compound. […] The insecticide synergists PBO (piperonyl butoxide) and DEF (SSS-tributyl-phosphoro-trithioate) were obtained from Fluka Chemical Co. (Basel, Switzerland) and Mobay Chemical Co. (Kansas City, Mo.). […] Synergist stocks were prepared at 100 μg/ml in analytical grade acetone.
(§3) Briefly, bioassays took place in 0.5-l glass jars with metal lids. Mixed-sex flies were isolated from lab colonies and placed in 4-ml dram vials in groups of ten, along with a dried piece of laboratory diet. The dram vials were capped with open-top septum caps that were covered with fine mesh (held in place by non-toxic glue). For bioassays, the assembled dram vials were placed into the 0.5-l jars along with a folded filter paper “tent” (Whatman #1; Vineland, N.J.). The filter paper was treated with either an insecticide dilution or acetone, the jar was sealed with the metal lid, and the bioassay proceeded for 24-hr at room temperature. Mortality was scored based on a complete lack of movement by the flies. Four concentrations plus an acetone control were tested for all insecticides. Between five and ten replicates were performed for each concentration range on each strain-insecticide combination. Synergist bioassays were performed with a slight modification. Synergist stocks were applied to dram vials at 100 μl per vial to provide assay concentrations of 10 μg per vial. […] After treatment, vials were held at an angle in a fume hood and rotated ¼-turn each minute until the acetone evaporated. Flies and diet were added as above and held for 1-hr. Assays were initiated, run, and scored as above.
(§4) Probit analysis was performed using PROC PROBIT in the SAS software package (SAS Institute; Cary, N.C.). If control mortality ever exceeded 10% in a given replicate, that replicate was discarded.

[2] = tested on: para-ts1 (para-R) strain of Drosophila (sodium channel point mutation); format: in vivo; settings: for Slope ± Std. Error (probit mortality line): Table 2, para-R, 24 hr
Protocol: as §1, §2, §3, §4

Substance | Slope ± Std. Error (probit mortality line) ([1]; Table 2) | Slope ± Std. Error (probit mortality line) ([1]; Table 3, no synergist) | Slope ± Std. Error (probit mortality line) [2] | response of para-ts1 relative to Canton-S (LC50 ratio, FIG. 7B), in words ([2]; significance at p<0.05, method of Robertson and Preisler)
ethyl formate | 12.50 ± 7.10 | 12.50 ± 7.10 | 7.11 ± 1.34 | non-significant tolerance
methyl formate | 2.72 ± 0.68 | 2.72 ± 0.68 | 8.84 ± 1.46 | 
